From US20180208563A1, “THERMOD[…] CRYSTAL MODIFICATION OF 2-CHLORO-3-(METHYLSULFANYL)-N-(1-METHYL-1H-TETRAZOL-5-YL)-4-(TRIFLUOROMETHYL)BENZAMIDE” (BAYER CROPSCIENCE AKTIENGESELLSCHAFT, priority 2015, published 2018)

What was measured:
[1] = Testing in practice of suspension formulations (crystal growth); type: physicochemical; conditions: suspension formulations with finely ground solid benzamide; spontaneously or over a longer period
Text: The benzamide known for example from WO 2012/028579 A1 (example No. 4-638 in table 4 therein) has herbicidal properties and is suitable for the production of crop protection compositions which can be employed for weed control. However, it has been shown that the benzamide preparable according to the disclosure of WO 2012/028579 A1 is not suitable for the production of user-friendly administration forms. User-friendly administration forms are, for example, suspension formulations in which the benzamide is present finely ground in solid form. […] The crystal growth can occur spontaneously or over a longer period and cannot be predicted.

[2] = Stability tests: storage of an oil dispersion; type: physicochemical; conditions: after several weeks of storage, compared to an oil dispersion of the benzamide prepared according to WO 2012/028579 A1

Compound	crystal growth, clumping and precipitation in suspension formulations [1]	signs of clumping and precipitation on storage [2]
CSc1c(C(F)(F)F)ccc(C(=O)Nc2nnnn2C)c1Cl [2-chloro-3-(methylsulfanyl)-N-(1-methyl-1H-tetrazol-5-yl)-4-(trifluoromethyl)benzamide]	crystal growth in suspension formulations and consequently to clumping and precipitation	
CSc1c(C(F)(F)F)ccc(C(=O)Nc2nnnn2C)c1Cl [crystal modification II, 2-chloro-3-(methylsulfanyl)-N-(1-methyl-1H-tetrazol-5-yl)-4-(trifluoromethyl)benzamide]		no signs of clumping and precipitation
